row,melting point [°C],SMILES
1,150 to 164,"CC(=O)c1nccc(N2C[C@@H](C)N(c3ccnc([C@@H](C)O)n3)[C@@H](C)C2)n1 [Example 46, 1-(4-{4-[2-(1R-Hydroxy-ethyl)-pyrimidin-4-yl]-3R,5S-dimethyl-piperazin-1-yl}-pyrimidin-2-yl)-ethanone]"
2,224 to 226,C[C@@H](O)c1nccc(N2CCn3c(nnc3-c3cc4ccccc4s3)C2)n1 [Example 262]
3,170 to 171,"COc1nc(CO)nc(N2[C@H](C)CN(c3ccnc([C@@H](C)O)n3)C[C@@H]2C)n1 [Example 236, 1R-{4-[4-(4-Hydroxymethyl-6-methoxy-[1,3,5]triazin-2-yl)-3R,5S-dimethyl-piperazin-1-yl]-pyrimidin-2-yl}-ethanol]"
4,157 to 159,"Cc1nc(C)nc(N2[C@H](C)CN(c3ccnc([C@@H](C)O)n3)C[C@@H]2C)n1 [Example 242, 1R-{4-[4-(4,6-Dimethyl-[1,3,5]triazin-2-yl)-3R,5S-dimethyl-piperazin-1-yl]-pyrimidin-2-yl}-ethanol]"
5,151 to 158,C[C@@H](O)c1nccc(N2C[C@H]3CCC[C@@H](C2)N3c2ccnc([C@@H](C)O)n2)n1 (stereo in doubt)
6,72 to 74,C[C@@H](O)c1nccc(N2CCc3cnc(-c4ccccc4)nc3C2)n1 [Example 87]
7,178 to 181,"C[C@@H](O)c1nccc(N2CCN(c3ccnc(CO)n3)[C@@H](C)C2)n1 [Example 37, 1R-{4-[4-(2-Hydroxymethyl-pyrimidin-4-yl)-3S-methyl-piperazin-1-yl]-pyrimidin-2-yl}-ethanol]"
8,138 to 140,"C[C@@H]1CN(c2ccnc(C(C)(C)O)n2)C[C@H](C)N1c1ccnc([C@@H](C)O)n1 [Example 34, 2-(4-{4-[2-(1R-Hydroxy-ethyl)-pyrimidin-4-yl]-3R,5S-dimethyl-piperazin-1-yl}-pyrimidin-2-yl)-propan-2-ol]"
9,153 to 155,"C[C@@H]1CN(c2ccnc([C@@H](C)O)n2)[C@@H](C)CN1c1ccnc([C@@H](C)O)n1 [Example 4, 1R-(4-{4-[2-(1R-Hydroxy-ethyl)-pyrimidin-4-yl]-2R,S-dimethyl-piperazin-1-yl}-pyrimidin-2-yl)-ethanol]"
10,174 to 175,"C[C@@H]1CN(c2ccnc([C@@H](C)O)n2)C[C@H](C)N1C(=O)C1CCCCC1 [Example 131, Cyclohexyl-{4-[2-(1R-hydroxy-ethyl)-pyrimidin-4-yl]-2R,6S-dimethyl-piperazin-1-yl}-methanone]"
11,114 to 116,"Cc1nc2c(c(-c3ccccc3)n1)CCN(c1ccnc([C@@H](C)O)n1)C2 [Example 86, (R)-1-[4-(2-Methyl-4-phenyl-5,8-dihydro-6H-pyrido[3,4-d]pyrimidin-7-yl)-pyrimidin-2-yl]ethanol]"
12,204 to 207,"C[C@@H]1CN(c2nc3cccnc3o2)C[C@H](C)N1c1ccnc([C@@H](C)O)n1 [Example 33, 1R-[4-(2R,6S-Dimethyl-4-oxazolo[5,4-b]pyridin-2-yl-piperazin-1-yl)-pyrimidin-2-yl]-ethanol]"
13,130 to 132,C[C@@H](O)c1nccc(N2CCc3nc(C(F)(F)F)ncc3C2)n1 [Example 255]
14,78 to 82,"C[C@@H]1CN(c2ncnc(N3CCOCC3)n2)C[C@H](C)N1c1ccnc([C@@H](C)O)n1 [Example 212, 1R-{4-[2R,6S-Dimethyl-4-(4-morpholino-4-yl-[1,3,5]triazin-2-yl)-piperazin-1-yl]-pyrimidin-2-yl}-ethanol]"
